Results as given in US5736557A, “N,N-bis (quinolin-4-yl)-diamine derivatives, their preparation and their use as antimalarials” (Hoffman-La Roche, Inc., priority 1994, dated 1998).
≈ marks a conversion by molar mass, not a printed value. Like-named read-outs stand apart in the source and are kept apart here.

Experiments:
[1] = system: chloroquine-resistant strains of the human-pathogenic Plasmodium falciparum; experiment: Growth inhibition of chloroquine-resistant Plasmodium falciparum strains in vitro; assay type: cell-based; conditions: for IC50: Plasmodium falciparum; for Resistance index: ratio of average IC50 values for resistant strains and average values for sensitive strains
Description: (§1) Test Method for the Determination of the Activity Against Plasmodium falciparum in vitro
(§2) The preparations are tested on intraerythrocytary stages of Plasmodium falciparum from asynchronous cultures according to the method of Desjardin et al. (Desjardins, R. E. et al: Quantitative assessment of antimalarial activity in vitro by a semiautomated microdilution technique. Antimicrob. Agents Chemother. 16, 710-718, (1979)).
(§3) The culture medium consists of RPMI 1640 with the addition of 25 mM HEPES, 25 mM NaHCO3, 100 μg/ml neomycin and […] (A^+). Human-A^+ erythrocytes are used as the Plasmodium falciparum host cells. The parasites are maintained at 37° C. in an atmosphere of 3% O2, 4% CO2, 9:3% N2 and 95% relative humidity.
(§4) In order to determine the activity, the preparations are dissolved in dimethyl sulphoxide, pre-diluted in the culture medium to a suitable starting concentration and subsequently titrated-out on to microtitre plates in the 2nd stage over 6-7 steps. After the addition of the parasite culture (0.7% parasitemia in 2.5% erythrocyte suspension) the test plates are incubated under the conditions given above for 48 h-72 h. The parasite growth in the different preparation concentrations is determined using [G--^3 H]-hypoxanthin incorporation compared to untreated control cultures on the same test plates. The 50% growth inhibition (IC50) is calculated according to logit regression analysis from the resulting dosage-activity curve.
(§5) The preparations are tested on at least one chloroquine-resistant and one chloroquine-sensitive Plasmodium falciparum strain. Additional sensitive and resistant strains are included for futher characterization.

[2] = system: chloroquine-sensitive strains of the human-pathogenenic Plasmodium falciparum; experiment: Growth inhibition of chloroquine-sensitive Plasmodium falciparum strains in vitro; assay type: cell-based
Description: as §1, §2, §3, §4, §5

Plasmodium berghei = experiment: Activity against Plasmodium berghei in vivo in mice; set-up: species or system Plasmodium berghei (strain ANKA) in mice; conditions: for ED50: read-out: ED50 po
Description: Test Method for the Determination of the Activity Against Plasmodium berghei in vivo
The preparations are tested on mice infected with malaria pathogens (Plasmodium berghei). Male albino mice (IBM:MORO(SPF), FUELLINSDORF) weighing about 25 g are used as the test animals. They are kept in climatized rooms at 21°-22° C. in groups of 5 animals per cage. They receive ad libitum a diet feed with a low PABA content (NAFAG FUTTER .COPYRGT. No. 9009 PAB-45, PABA content 45 mg/kg) and drinking water. On the first day of the test (DO) the test animals are infected with Plasmodium berghei (strain ANKA). For this there is used heparinized blood of a donor mouse with about 30% parasitemia, which is diluted with physiological saline such that it contains 10^8 parasitized erythrocytes per ml. 0.2 ml of this suspension is injected intravenously (i.v.) into the mice to be treated and into the control mice. In untreated control animals the parasitemia normally reaches 30-40% on the third day after the infection (D+3) and the test animals die between days +5 and +7.
The substances to be tested are dissolved or suspended in distilled water or in a mixture of 7% Tween 80, 3% alcohol (96%) and water. Usually, 0.25 ml of this solution or suspension is administered once subcutaneously and perorally to groups of 5 test animals. Treatment is effected 24 hours after the infection. 10 control animals are treated in the same manner with solvent or suspension medium per test.
All substances are tested in a first test in a single dosage of 10 mg/kg. Only those substances which in this test (10 mg/kg) have shown a parasitaemia reduction of 90% are used for the titration. Suitable dilutions of the test substance can be used to obtain an accurate titration of the activity.
48 hours after the treatment (D+3) blood smears are prepared from all animals using blood from tail veins and are stained with giemsa. The average erythrocyte infection rate (parasitemiea in %) in the control groups as well as in the groups which have been treated with the test compounds is determined by counting under a microscope. The difference in the average values of the infection rates of control group (100%) and treated groups is calculated and expressed as a percentage reduction (GI%). The ED50 or ED90 is determined mathematically by means of the JMP programme (nonlinear fit). The ED50 (ED90) in mg/kg is that dose which after single administration reduces the average erythrocyte infection rate by 50% (90%) in comparison to the control group.

[3] = read-out: IC50 growth inhibition, strain K1, chloroquine-resistant
[4] = NF54, strain NF54, chloroquine-sensitive, read-out: IC50 growth inhibition
[5] = po, percentage parasitemia reduction, single peroral dose 10 mg/kg, mice, read-out: GI % at 10 mg/kg po
[6] = sc, percentage parasitemia reduction, single subcutaneous dose 10 mg/kg, mice, read-out: GI % at 10 mg/kg sc
[7] = read-out: IC50 growth inhibition, strain 7G8, chloroquine-resistant
[8] = read-out: IC50 growth inhibition, strain Indo, chloroquine-resistant
[9] = read-out: IC50 growth inhibition, strain ItG2F6, chloroquine-resistant
[10] = read-out: IC50 growth inhibition, strain RFCF3, chloroquine-resistant
[11] = read-out: IC50 growth inhibition, strain W2 Mef, chloroquine-resistant
[12] = read-out: IC50 growth inhibition, strain RFMEF3, chloroquine-sensitive
[13] = read-out: IC50 growth inhibition, strain W2, chloroquine-resistant
[14] = HB3, strain HB3, chloroquine-sensitive, read-out: IC50 growth inhibition
[15] = strain FCH5C2, chloroquine-sensitive, read-out: IC50 growth inhibition
[16] = strain RFMEF3, chloroquine-sensitive, read-out: IC50 growth inhibition
[17] = strain Ro73, chloroquine-sensitive, read-out: IC50 growth inhibition
[18] = po, single peroral administration, mice

SMILES	IC50 [1, 3] [ng/mL]	IC50 [2, 4] [ng/mL]	inhibition in vivo at 10 mg/kg (Plasmodium berghei; [5]) [%]	inhibition in vivo at 10 mg/kg (Plasmodium berghei; [6]) [%]	IC50 [1, 7] [ng/mL]	IC50 [1, 8] [ng/mL]	IC50 [1, 9] [ng/mL]	IC50 [1, 10] [ng/mL]	IC50 [1, 11] [ng/mL]	Resistance index [1]	IC50 [1, 13] [ng/mL]	IC50 [2, 14] [ng/mL]	IC50 [2, 15] [ng/mL]	IC50 [2, 16] [ng/mL]	IC50 [2, 17] [ng/mL]	further results
Clc1ccc2c(N[C@H]3CCC[C@H](Nc4ccnc5cc(Cl)ccc45)C3)ccnc2c1 (relative stereo) [Example 7, ±-trans-N,N'-Bis-(7-chloroquinolin-4-yl)-cyclohexane-1,3-diamine]	10.5 (≈ 0.024 µM)	10.7 (≈ 0.0245 µM)	97	99	–	–	–	–	–	–	–	–	–	–	–	–
CCN(CC)CCCC(C)Nc1ccnc2cc(Cl)ccc12 (stereo not drawn) [Chloroquine, reference compound]	114 (≈ 0.356 µM)	–	–	–	81 (≈ 0.253 µM)	52 (≈ 0.163 µM)	68 (≈ 0.213 µM)	130 (≈ 0.406 µM)	79 (≈ 0.247 µM)	8.7	–	–	–	–	–	IC50 ([2]; HB3, read-out: IC50 growth inhibition, strain HB3, chloroquine-sensitive): 11.3 ng/mL (≈ 0.0353 µM); IC50 ([2]; NF54, read-out: IC50 growth inhibition, strain NF54, chloroquine-sensitive): 7.6 ng/mL (≈ 0.0238 µM); IC50 ([2]; read-out: IC50 growth inhibition, strain FCH5C2, chloroquine-sensitive): 12.2 ng/mL (≈ 0.0381 µM); IC50 [2, 12]: 14.2 ng/mL (≈ 0.0444 µM); IC50 ([2]; read-out: IC50 growth inhibition, strain Ro73, chloroquine-sensitive): 8 ng/mL (≈ 0.025 µM); ED50 (Plasmodium berghei; po): 2 mg/kg; inhibition in vivo at 10 mg/kg (Plasmodium berghei; po, read-out: GI % at 10 mg/kg po): 99.9%; inhibition in vivo at 10 mg/kg (Plasmodium berghei; sc, read-out: GI % at 10 mg/kg sc): 99.9%
Clc1ccc2c(NCc3ccccc3CNc3ccnc4cc(Cl)ccc34)ccnc2c1 [Example 1, (7-Chloroquinolin-4-yl)-[2-(7-chloroquinolin-4-yl-aminomethyl)-benzyl]-amin]	6.9 (≈ 0.015 µM)	10.2 (≈ 0.0222 µM)	62	97	7 (≈ 0.0152 µM)	6.9 (≈ 0.015 µM)	4.7 (≈ 0.0102 µM)	5.4 (≈ 0.0118 µM)	4.9 (≈ 0.0107 µM)	0.9	5.8 (≈ 0.0126 µM)	7.5 (≈ 0.0163 µM)	6.6 (≈ 0.0144 µM)	6.5 (≈ 0.0141 µM)	3.6 (≈ 0.00784 µM)	–
Clc1ccc2c(NCc3cccc(CNc4ccnc5cc(Cl)ccc45)c3)ccnc2c1 [Example 2, (7-Chloroquinolin-4-yl)-[3-(7-chloroquinolin-4-yl-aminomethyl)-benzyl]-amine]	17 (≈ 0.037 µM)	10.3 (≈ 0.0224 µM)	87	99	13.9 (≈ 0.0303 µM)	15.8 (≈ 0.0344 µM)	19 (≈ 0.0414 µM)	26.3 (≈ 0.0573 µM)	17 (≈ 0.037 µM)	2.8	100 (≈ 0.218 µM)	8.9 (≈ 0.0194 µM)	12.5 (≈ 0.0272 µM)	7.8 (≈ 0.017 µM)	13.3 (≈ 0.029 µM)	–
Clc1ccc2c(NCc3ccc(CNc4ccnc5cc(Cl)ccc45)cc3)ccnc2c1 [Example 3, (7-Chloroquinolin-4-yl)-[4-(7-chloroquinolin-4-yl-aminomethyl)-benzyl]-amine]	9.1 (≈ 0.0198 µM)	9.6 (≈ 0.0209 µM)	99.9	99.9	6.8 (≈ 0.0148 µM)	2.9 (≈ 0.00631 µM)	7.9 (≈ 0.0172 µM)	5.7 (≈ 0.0124 µM)	9.7 (≈ 0.0211 µM)	0.7	5 (≈ 0.0109 µM)	4.6 (≈ 0.01 µM)	12.7 (≈ 0.0276 µM)	12.5 (≈ 0.0272 µM)	7.4 (≈ 0.0161 µM)	ED50 (Plasmodium berghei; [18]): 2.5 mg/kg
Clc1ccc2c(N[C@H]3CC[C@H](Nc4ccnc5cc(Cl)ccc45)CC3)ccnc2c1 [Example 4, ±-trans-N,N'-Bis-(7-chloroquinolin-4-yl)-cyclohexane-1,4-diamine]	11.6 (≈ 0.0265 µM)	7.2 (≈ 0.0165 µM)	73	37	2.8 (≈ 0.0064 µM)	6 (≈ 0.0137 µM)	5.3 (≈ 0.0121 µM)	9.5 (≈ 0.0217 µM)	7 (≈ 0.016 µM)	2.1	13.1 (≈ 0.03 µM)	3.3 (≈ 0.00755 µM)	3.6 (≈ 0.00823 µM)	3.3 (≈ 0.00755 µM)	1.6 (≈ 0.00366 µM)	–
Clc1ccc2c(N[C@H]3CC[C@@H](Nc4ccnc5cc(Cl)ccc45)CC3)ccnc2c1 [Example 5, cis-N,N'-Bis-(7-chloroquinolin-4-yl)-cyclohexane-1,4-diamine]	7.7 (≈ 0.0176 µM)	2.6 (≈ 0.00594 µM)	98	99.9	9 (≈ 0.0206 µM)	4.4 (≈ 0.0101 µM)	6.8 (≈ 0.0155 µM)	5.1 (≈ 0.0117 µM)	6.5 (≈ 0.0149 µM)	2.1	4.8 (≈ 0.011 µM)	3.2 (≈ 0.00732 µM)	3.9 (≈ 0.00892 µM)	3.4 (≈ 0.00777 µM)	2.3 (≈ 0.00526 µM)	ED50 (Plasmodium berghei; [18]): 1.5 mg/kg
Clc1ccc2c(NC3CCC(CC4CCC(Nc5ccnc6cc(Cl)ccc56)CC4)CC3)ccnc2c1 (stereo not drawn) [Example 12, N,N'-Bis-(7-chloroquinolin-4-yl)-dicyclohexylmethane-4,4'-diamine]	13 (≈ 0.0244 µM)	11.6 (≈ 0.0217 µM)	–	–	17.1 (≈ 0.032 µM)	13.7 (≈ 0.0257 µM)	13.3 (≈ 0.0249 µM)	7.2 (≈ 0.0135 µM)	21.6 (≈ 0.0405 µM)	0.9	25 (≈ 0.0469 µM)	26.3 (≈ 0.0493 µM)	19.4 (≈ 0.0364 µM)	–	17.8 (≈ 0.0334 µM)	IC50 [2, 12]: 13.7 ng/mL (≈ 0.0257 µM)
Clc1ccc2c(NC/C=C/CNc3ccnc4cc(Cl)ccc34)ccnc2c1 [Example 13, N,N'-Bis-(7-chloroquinolin-4-yl)-2-butene-1,4-diamine]	18.1 (≈ 0.0442 µM)	30.8 (≈ 0.0752 µM)	–	–	–	–	–	–	–	–	–	–	–	–	–	–
